# Measurements taken from ChEMBL document CHEMBL4007390, “Design, synthesis and biological evaluation of indolin-2-one-based derivatives as potent, selective and efficacious inhibitors of FMS-like tyrosine kinase3 (FLT3)” (Eur J Med Chem, 2017).
# How the values were obtained:
# [1] = Toxicity in Harlan nude mouse xenografted with human MV4-11 cells administered ig bid for 20 days; settings: in vivo, po
# [2] = Half life in Balb/c nude mouse at 40 mg/kg, po via gavage by LC-MS/MS analysis; format: ADME, organism-based; settings: in vivo
# [3] = target: Serine/threonine-protein kinase B-raf (Homo sapiens) (UniProt P15056); experiment: Inhibition of human BRAF at 0.1 uM relative to control
# [4] = test system: Receptor-type tyrosine-protein kinase FLT3 (Homo sapiens), P36888 [D835Y]; settings: 0.1 uM
# [5] = target: Insulin-like growth factor 1 receptor (Homo sapiens) (UniProt P08069); experiment: Inhibition of human IGF1R at 0.1 uM relative to control
# Cytochrome P450 2B6 = Cytochrome P450 2B6 (Homo sapiens, UniProt P20813); experiment: Inhibition of microsomal CYP2B6 (unknown origin) using bupropion as substrate preincubated for 5 mins followed by NADPH addition by LC-MS/MS analysis; format: ADME
# Sequence of Cytochrome P450 2B6 (P20813 whole entry): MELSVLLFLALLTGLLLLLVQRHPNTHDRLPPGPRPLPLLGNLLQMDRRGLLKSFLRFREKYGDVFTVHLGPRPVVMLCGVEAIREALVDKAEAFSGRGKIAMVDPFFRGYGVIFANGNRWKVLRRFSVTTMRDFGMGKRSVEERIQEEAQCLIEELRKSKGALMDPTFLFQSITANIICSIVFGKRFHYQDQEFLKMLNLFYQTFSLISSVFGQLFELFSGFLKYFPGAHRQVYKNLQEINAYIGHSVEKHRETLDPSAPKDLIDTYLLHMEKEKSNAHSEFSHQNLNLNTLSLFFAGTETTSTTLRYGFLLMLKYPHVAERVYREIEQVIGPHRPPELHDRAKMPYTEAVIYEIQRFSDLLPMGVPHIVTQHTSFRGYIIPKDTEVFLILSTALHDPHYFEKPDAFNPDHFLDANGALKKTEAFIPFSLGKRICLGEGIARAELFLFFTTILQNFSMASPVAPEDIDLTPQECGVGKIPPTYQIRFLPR
# MV4-11 [6] = experiment: Antitumor activity against human MV4-11 cells xenografted in Harlan nude mouse assessed as tumor growth inhibition at 20 mg/kg, ig bid for 20 days relative to control; format: functional; settings: MV4-11, po, 480 h, read-out: TGI
# [7] = target: Insulin receptor (Homo sapiens) (UniProt P06213); experiment: Inhibition of human INSR at 0.1 uM relative to control
# Sequence of Insulin receptor (Homo sapiens) (P06213 28-758 limits assumed): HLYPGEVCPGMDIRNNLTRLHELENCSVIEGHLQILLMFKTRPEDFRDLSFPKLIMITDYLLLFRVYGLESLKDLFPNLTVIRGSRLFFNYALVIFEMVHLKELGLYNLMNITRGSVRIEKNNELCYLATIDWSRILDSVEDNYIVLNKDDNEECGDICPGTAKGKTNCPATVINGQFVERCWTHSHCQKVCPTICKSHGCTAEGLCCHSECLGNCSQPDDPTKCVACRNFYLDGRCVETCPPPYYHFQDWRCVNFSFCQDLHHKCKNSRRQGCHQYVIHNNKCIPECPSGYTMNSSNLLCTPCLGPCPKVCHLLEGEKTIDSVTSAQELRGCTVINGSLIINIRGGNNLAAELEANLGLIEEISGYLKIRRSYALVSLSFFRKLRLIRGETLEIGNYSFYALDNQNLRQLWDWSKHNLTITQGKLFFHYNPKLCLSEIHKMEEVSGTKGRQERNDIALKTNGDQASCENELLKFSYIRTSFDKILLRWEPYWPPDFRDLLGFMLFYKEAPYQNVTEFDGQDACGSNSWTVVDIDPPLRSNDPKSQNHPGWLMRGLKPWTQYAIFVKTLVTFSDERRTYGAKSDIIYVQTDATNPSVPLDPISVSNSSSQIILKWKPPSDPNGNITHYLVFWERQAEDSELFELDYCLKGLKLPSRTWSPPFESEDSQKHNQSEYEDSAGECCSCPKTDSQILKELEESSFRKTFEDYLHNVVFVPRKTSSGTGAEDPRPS
# Sequence of Insulin receptor (Homo sapiens) (P06213 763-1382 limits assumed): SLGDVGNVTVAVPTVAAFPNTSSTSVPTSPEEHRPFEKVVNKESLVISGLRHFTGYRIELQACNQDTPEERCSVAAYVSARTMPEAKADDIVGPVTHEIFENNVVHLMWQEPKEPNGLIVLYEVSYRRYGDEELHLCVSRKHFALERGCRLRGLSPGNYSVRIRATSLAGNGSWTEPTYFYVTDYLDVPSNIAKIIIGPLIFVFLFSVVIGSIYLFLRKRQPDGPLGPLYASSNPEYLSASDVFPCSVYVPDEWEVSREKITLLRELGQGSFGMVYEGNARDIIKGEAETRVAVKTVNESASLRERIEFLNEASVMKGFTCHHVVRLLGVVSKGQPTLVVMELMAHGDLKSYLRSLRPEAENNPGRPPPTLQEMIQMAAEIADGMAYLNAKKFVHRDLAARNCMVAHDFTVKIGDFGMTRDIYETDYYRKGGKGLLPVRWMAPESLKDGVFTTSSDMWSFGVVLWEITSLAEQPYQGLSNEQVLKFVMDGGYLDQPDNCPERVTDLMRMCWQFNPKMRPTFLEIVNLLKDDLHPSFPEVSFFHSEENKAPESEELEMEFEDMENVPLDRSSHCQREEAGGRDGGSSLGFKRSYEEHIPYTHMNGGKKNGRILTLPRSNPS
# [8] = target: T1, Platelet-derived growth factor receptor alpha (Homo sapiens, UniProt P16234); experiment: Inhibition of human PDGFRalpha
# T1 sequence (P16234 whole entry): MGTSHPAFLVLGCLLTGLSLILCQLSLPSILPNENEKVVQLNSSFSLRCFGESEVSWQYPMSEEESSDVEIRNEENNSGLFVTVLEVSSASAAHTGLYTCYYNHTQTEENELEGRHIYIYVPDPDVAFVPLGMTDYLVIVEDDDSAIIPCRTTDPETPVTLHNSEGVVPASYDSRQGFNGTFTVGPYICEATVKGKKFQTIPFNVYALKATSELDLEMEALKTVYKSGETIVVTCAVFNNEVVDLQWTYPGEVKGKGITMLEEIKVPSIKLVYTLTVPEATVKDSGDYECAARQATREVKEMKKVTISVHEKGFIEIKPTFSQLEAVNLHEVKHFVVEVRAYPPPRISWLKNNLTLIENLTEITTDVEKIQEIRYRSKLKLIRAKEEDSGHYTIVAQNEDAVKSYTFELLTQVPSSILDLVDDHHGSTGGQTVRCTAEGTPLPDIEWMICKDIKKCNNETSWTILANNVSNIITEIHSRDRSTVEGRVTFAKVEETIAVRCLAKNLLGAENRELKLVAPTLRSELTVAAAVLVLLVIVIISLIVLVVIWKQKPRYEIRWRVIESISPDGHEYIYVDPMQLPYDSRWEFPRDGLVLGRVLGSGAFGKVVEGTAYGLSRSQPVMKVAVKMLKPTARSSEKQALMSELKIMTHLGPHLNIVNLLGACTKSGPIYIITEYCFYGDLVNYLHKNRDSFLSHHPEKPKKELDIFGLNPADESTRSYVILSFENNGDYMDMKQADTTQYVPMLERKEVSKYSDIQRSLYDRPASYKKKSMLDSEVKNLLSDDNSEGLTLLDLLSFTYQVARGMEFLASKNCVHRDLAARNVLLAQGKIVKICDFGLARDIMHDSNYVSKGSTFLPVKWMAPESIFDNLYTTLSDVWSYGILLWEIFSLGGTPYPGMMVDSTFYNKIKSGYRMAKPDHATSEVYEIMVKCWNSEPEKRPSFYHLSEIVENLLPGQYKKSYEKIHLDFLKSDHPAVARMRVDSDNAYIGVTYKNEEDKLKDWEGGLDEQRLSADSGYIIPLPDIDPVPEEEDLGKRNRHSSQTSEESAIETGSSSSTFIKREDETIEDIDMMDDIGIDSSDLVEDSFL
# [9] = target: Vascular endothelial growth factor receptor 2 (Homo sapiens) (UniProt P35968); experiment: Inhibition of human VEGFR2 at 0.1 uM relative to control
# Kasumi 1 = experiment: Antiproliferative activity against human Kasumi-1 cells harboring […] after 72 hrs by MTS assay; format: functional, cell-based; settings: Kasumi 1, 72 h
# HL-60 = experiment: Antiproliferative activity against FLT3 negative human HL60 cells after 72 hrs by MTS assay; format: functional, cell-based; settings: HL-60, 72 h
# [10] = Tmax in Balb/c nude mouse at 40 mg/kg, po via gavage by LC-MS/MS analysis; format: ADME, organism-based; settings: in vivo
# [11] = target: AMPK alpha2/beta1/gamma1 (Homo sapiens) (UniProt P54646+P54619+Q9Y478); experiment: Inhibition of human AMPK alpha2/beta1/gamma1 at 0.1 uM relative to control; format: protein-complex assay
# [12] = target: Receptor-type tyrosine-protein kinase FLT3 (Homo sapiens) (UniProt P36888); settings: 0.1 uM
# Description: Inhibition of human FLT3 at 0.1 uM relative to control
# [13] = target: Tyrosine-protein kinase ABL1 (Homo sapiens) (UniProt P00519); experiment: Inhibition of human ABL1 at 0.1 uM relative to control
# [14] = test system: Platelet-derived growth factor receptor alpha (Homo sapiens), P16234 [T674I]; experiment: Inhibition of human PDGFRalpha T674I mutant at 0.1 uM relative to control
# Sequence of Platelet-derived growth factor receptor alpha (Homo sapiens), P16234 [T674I] (P16234 whole entry T674I): as the sequence (P16234 whole entry) above, with T674I counted along it
# [15] = test system: Platelet-derived growth factor receptor alpha (Homo sapiens), P16234 [D842V]; experiment: Inhibition of human PDGFRalpha D842V mutant at 0.1 uM relative to control
# Sequence of Platelet-derived growth factor receptor alpha (Homo sapiens), P16234 [D842V] (P16234 whole entry D842V): as the sequence (P16234 whole entry) above, with D842V counted along it
# [16] = target: Vascular endothelial growth factor receptor 3 (Homo sapiens) (UniProt P35916); experiment: Inhibition of human VEGFR3 at 0.1 uM relative to control
# [17] = Inhibition of human FLT3 ITD mutant
# [18] = target: Platelet-derived growth factor receptor beta (Homo sapiens) (UniProt P09619); experiment: Inhibition of human PDGFRbeta at 0.1 uM relative to control
# Sequence of Platelet-derived growth factor receptor beta (Homo sapiens) (P09619 whole entry): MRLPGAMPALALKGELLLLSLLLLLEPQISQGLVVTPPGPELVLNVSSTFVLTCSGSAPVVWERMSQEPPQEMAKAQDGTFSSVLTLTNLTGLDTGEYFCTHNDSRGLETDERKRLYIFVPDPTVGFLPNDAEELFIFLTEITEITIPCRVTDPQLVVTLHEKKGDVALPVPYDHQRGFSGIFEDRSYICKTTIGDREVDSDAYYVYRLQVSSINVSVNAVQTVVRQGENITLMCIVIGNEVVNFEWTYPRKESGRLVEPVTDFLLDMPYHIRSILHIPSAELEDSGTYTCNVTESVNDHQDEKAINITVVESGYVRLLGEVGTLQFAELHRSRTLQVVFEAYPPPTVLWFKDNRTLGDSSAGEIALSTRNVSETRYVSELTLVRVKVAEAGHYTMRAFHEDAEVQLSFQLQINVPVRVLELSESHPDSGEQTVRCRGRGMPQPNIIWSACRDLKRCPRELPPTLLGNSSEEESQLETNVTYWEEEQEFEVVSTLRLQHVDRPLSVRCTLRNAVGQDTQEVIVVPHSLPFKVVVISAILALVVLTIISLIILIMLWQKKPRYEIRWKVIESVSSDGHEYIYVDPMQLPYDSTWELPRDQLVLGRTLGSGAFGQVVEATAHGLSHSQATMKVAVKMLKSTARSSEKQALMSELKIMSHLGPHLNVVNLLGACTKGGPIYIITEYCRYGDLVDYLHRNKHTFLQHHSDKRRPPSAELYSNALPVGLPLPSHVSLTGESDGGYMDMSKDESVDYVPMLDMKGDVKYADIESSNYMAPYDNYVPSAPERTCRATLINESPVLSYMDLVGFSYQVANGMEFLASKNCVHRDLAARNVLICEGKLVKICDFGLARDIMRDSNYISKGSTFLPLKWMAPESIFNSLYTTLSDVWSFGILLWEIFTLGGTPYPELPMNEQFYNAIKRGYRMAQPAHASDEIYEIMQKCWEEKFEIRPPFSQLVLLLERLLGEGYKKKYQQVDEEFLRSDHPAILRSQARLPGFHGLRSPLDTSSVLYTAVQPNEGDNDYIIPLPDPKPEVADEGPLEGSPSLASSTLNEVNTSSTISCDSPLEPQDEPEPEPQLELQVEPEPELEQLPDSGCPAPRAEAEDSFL
# Cytochrome P450 2C19 = Cytochrome P450 2C19 (Homo sapiens, UniProt P33261); experiment: Inhibition of microsomal CYP2C19 (unknown origin) using S-mephenytoin as substrate preincubated for 5 mins followed by NADPH addition by LC-MS/MS analysis; format: ADME
# [19] = target: Receptor-type tyrosine-protein kinase FLT3 (Homo sapiens, UniProt P36888); experiment: Inhibition of human FLT3
# MV4-11 [20] = experiment: Antitumor activity against human MV4-11 cells xenografted in Harlan nude mouse assessed as tumor growth inhibition at 5 mg/kg, ig bid for 20 days relative to control; format: functional; settings: MV4-11, po, 480 h, read-out: TGI
# MV4-11 [21] = experiment: Antiproliferative activity against human MV4-11 cells harboring FLT3 ITD mutant after 72 hrs by MTS assay; format: functional, cell-based; settings: MV4-11, 72 h
# 786-0 = experiment: Antiproliferative activity against human 786-O cells harboring VHL after 72 hrs by MTS assay; format: functional, cell-based; settings: 786-0, 72 h
# [22] = target: Fibroblast growth factor receptor 1 (Homo sapiens) (UniProt P11362); experiment: Inhibition of human FGFR1 at 0.1 uM relative to control
# Sequence of Fibroblast growth factor receptor 1 (Homo sapiens) (P11362 22-822 limits assumed): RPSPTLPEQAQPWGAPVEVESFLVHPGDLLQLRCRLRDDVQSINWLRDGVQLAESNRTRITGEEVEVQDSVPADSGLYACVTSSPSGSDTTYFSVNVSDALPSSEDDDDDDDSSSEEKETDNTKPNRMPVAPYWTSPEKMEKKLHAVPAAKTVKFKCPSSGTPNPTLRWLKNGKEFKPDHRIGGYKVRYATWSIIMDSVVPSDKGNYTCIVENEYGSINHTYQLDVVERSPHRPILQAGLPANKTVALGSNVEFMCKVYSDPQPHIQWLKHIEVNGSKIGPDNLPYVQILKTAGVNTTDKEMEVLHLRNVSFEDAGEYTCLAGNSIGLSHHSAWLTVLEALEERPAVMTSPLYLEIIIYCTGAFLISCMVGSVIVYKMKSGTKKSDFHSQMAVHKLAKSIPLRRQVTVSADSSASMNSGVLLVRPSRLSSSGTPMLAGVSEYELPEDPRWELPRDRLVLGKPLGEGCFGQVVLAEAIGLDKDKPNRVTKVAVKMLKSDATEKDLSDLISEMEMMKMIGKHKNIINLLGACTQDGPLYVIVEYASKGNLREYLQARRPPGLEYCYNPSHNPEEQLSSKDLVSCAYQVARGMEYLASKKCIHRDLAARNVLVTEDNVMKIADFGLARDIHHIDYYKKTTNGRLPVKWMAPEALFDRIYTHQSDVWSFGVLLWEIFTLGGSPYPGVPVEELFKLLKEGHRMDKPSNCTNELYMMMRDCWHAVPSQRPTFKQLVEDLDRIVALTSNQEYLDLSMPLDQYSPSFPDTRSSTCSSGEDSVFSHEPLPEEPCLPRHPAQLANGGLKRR
# [23] = Cmax in Balb/c nude mouse at 40 mg/kg, po via gavage by LC-MS/MS analysis; format: ADME, organism-based; design: dose 40 mg/kg, route oral; settings: in vivo
# LC-2-ad = experiment: Antiproliferative activity against human LC2/ad cells harboring RET after 72 hrs by MTS assay; format: functional, cell-based
# [24] = target: T1, Platelet-derived growth factor receptor alpha; experiment: Inhibition of human PDGFRalpha at 0.1 uM relative to control
# Cytochrome P450 2C8 = Cytochrome P450 2C8 (Homo sapiens, UniProt P10632); experiment: Inhibition of microsomal CYP2C8 (unknown origin) using amodiaquine as substrate preincubated for 5 mins followed by NADPH addition by LC-MS/MS analysis; format: ADME
# [25] = target: ALK tyrosine kinase receptor (Homo sapiens) (UniProt Q9UM73); experiment: Inhibition of human ALK at 0.1 uM relative to control
# MDA-MB-231 = experiment: Antiproliferative activity against human MDA-MB-231 cells harboring K-Ras/B-Raf after 72 hrs by MTS assay; format: functional, cell-based; settings: MDA-MB-231, 72 h
# KG-1 = experiment: Antiproliferative activity against human KG1 cells harboring wild type FLT3 after 72 hrs by MTS assay; format: functional, cell-based; settings: KG-1, 72 h
# Cytochrome P450 2D6 = Cytochrome P450 2D6 (Homo sapiens, UniProt P10635); experiment: Inhibition of microsomal CYP2D6 (unknown origin) using dextromethorphan as substrate preincubated for 5 mins followed by NADPH addition by LC-MS/MS analysis; format: ADME
# [26] = target: Epidermal growth factor receptor (Homo sapiens) (UniProt P00533); experiment: Inhibition of human EGFR at 0.1 uM relative to control
smiles,measurement,setting,value
Cc1[nH]c(/C=C2\C(=O)Nc3ccc(F)cc32)c(C)c1NC(=O)[C@H]1CCCN1.Cl,MTD at 480 h,[1],160 mg/kg/day
same,half-life,[2],96 min
same,inhibition,[3],0%
same,inhibition,[4],93%
same,inhibition,[5],13%
same,IC50,Cytochrome P450 2B6,> 33 µM
same,inhibition in vivo at 20 mg/kg,MV4-11 [6],99.8%
same,inhibition,[7],16%
same,IC50,[8],175 nM
same,inhibition,[9],38%
same,IC50,Kasumi 1,250 nM
same,IC50,HL-60,6.47 µM
same,Tmax,[10],2 h
same,inhibition,[11],58%
same,inhibition,[12],95%
same,inhibition,[13],20%
same,inhibition,[14],98%
same,inhibition,[15],21%
same,inhibition,[16],47%
same,IC50,[17],0.7 nM
same,inhibition,[18],48%
same,IC50,Cytochrome P450 2C19,> 33 µM
same,IC50,[19],5.3 nM
same,inhibition in vivo at 5 mg/kg,MV4-11 [20],52.4%
same,IC50,MV4-11 [21],24.8 nM
same,IC50,786-0,12.2 µM
same,inhibition,[22],27%
same,Cmax,[23],709 ng/mL
same,IC50,LC-2-ad,621 nM
same,inhibition,[24],49%
same,IC50,Cytochrome P450 2C8,> 33 µM
same,inhibition,[25],63%
same,IC50,MDA-MB-231,> 20 µM
same,IC50,KG-1,24.5 µM
same,IC50,Cytochrome P450 2D6,> 33 µM
same,inhibition,[26],-1%
